The data set can be described thus: solvent given as SMILES.

The structures appear in SMILES notation.

For the compound `CNc1ccccc1`, the “solvation free energy, 298 K” value was -6.06 kcal/mol (in CCCCCCCCCCCCCCCC) and -4.69 kcal/mol (in O).

On to `CCCCC(=O)CC(C)=O`, for which the “solvation free energy, 298 K” value (in O) is -4.28 kcal/mol.

Turning to `CCCNCc1ccc(C)cc1`, under “in O”, the “solvation free energy, 298 K” value is -5.73 kcal/mol.

Consider `CC(C)CC(=O)O`, for which the “solvation free energy, 298 K” value (in O) is -6.09 kcal/mol.

With `CBr`, under “in O”, the “solvation free energy, 298 K” value is -0.82 kcal/mol.

Consider `CCOC(=O)c1ccc(O)cc1`, for which the “solvation free energy, 298 K” value (in O) was -9.2 kcal/mol.

For the compound `CC1CO1` (stereo not given), the “solvation free energy, 298 K” value (in CC=O) is -3.7 kcal/mol.

Turning to `O=P(c1ccccc1)(c1ccccc1)c1ccccc1`, under “in O”, the “solvation free energy, 298 K” value was -17 kcal/mol.

Take `Clc1cccc(Cl)c1`: the “solvation free energy, 298 K” value is, setting by setting: (in CCCCCC) -6.18 kcal/mol; (in CCCCCCCCO) -5.63 kcal/mol; (in O) -1.05 kcal/mol.

On to `CC(=O)c1cccnc1`, for which the “solvation free energy, 298 K” value (in O) was -8.26 kcal/mol.

On to `CC(=O)C(C)=O`, for which the “solvation free energy, 298 K” value (in O) was -4.3 kcal/mol.

As for `NCc1ccccc1`, the “solvation free energy, 298 K” value (in O) is -6.34 kcal/mol.

As to `CCCCCCCCCCCCCCCC`, the “solvation free energy, 298 K” value was -8.9 kcal/mol (in CCO); -11.4 kcal/mol (in ClC(Cl)(Cl)Cl); -9.66 kcal/mol (in ClCCCl); -7.93 kcal/mol (in O=Cc1ccco1); -5.77 kcal/mol (in OCCOCCO).

Consider `CN(C)CCC(c1ccc(Br)cc1)c1ccccn1` (stereo not given), for which, for the setting “in O”, the “solvation free energy, 298 K” value was -11.6 kcal/mol.

Turning to `CCC(N)=O`, the “solvation free energy, 298 K” value (in O) is -9.4 kcal/mol.

For `CCCCC#N`, the “solvation free energy, 298 K” value (in CCCCCC) was -4.45 kcal/mol; the “solvation free energy, 298 K” value (in CCCCCCCCCCCCCCCC) is -4.01 kcal/mol; the “solvation free energy, 298 K” value (in CCCCCCCCO) was -4.89 kcal/mol; the “solvation free energy, 298 K” value (in O) is -3.49 kcal/mol; the “solvation free energy, 298 K” value (in [2H]O[2H]) was -3.42 kcal/mol.

Consider `ClCCCCl`, for which the “solvation free energy, 298 K” value is, setting by setting: (in CC(C)=O) -5.63 kcal/mol; (in CCCCCC) -4.43 kcal/mol; (in ClC(Cl)(Cl)Cl) -5.2 kcal/mol; (in O) -1.89 kcal/mol.

Regarding `COC(C)OC`, the “solvation free energy, 298 K” value (in O) is -3.26 kcal/mol.

As to `Oc1ccccc1F`, the “solvation free energy, 298 K” value runs as follows: (in CC(C)CC(C)(C)C) -4.58 kcal/mol; (in CCCCCC) -4.69 kcal/mol; (in CCCCCCC) -4.7 kcal/mol; (in CCCCCCCC) -4.52 kcal/mol; (in CCCCCCCCCC) -4.58 kcal/mol; (in Cc1ccc(C)cc1) -5.86 kcal/mol. For the same compound, the “solvation free energy, 298 K” value by setting is: (in Cc1cccc(C)c1) -5.89 kcal/mol; (in Cc1ccccc1C) -5.96 kcal/mol; (in O) -5.29 kcal/mol.

Consider `COc1ccc(C(=O)N(C)C)cc1`, for which the “solvation free energy, 298 K” value (in O) is -11 kcal/mol.

On to `CCCCC(=O)OCC`, for which the “solvation free energy, 298 K” value (in O) is -2.49 kcal/mol.

For the compound `C=CC`, the “solvation free energy, 298 K” value reads like this: (in C1CCC2CCCCC2C1) -1.43 kcal/mol; (in C1COCCO1) -1.36 kcal/mol; (in CC1COC(=O)O1) -0.97 kcal/mol; (in CC(C)(C)O) -1.35 kcal/mol; (in CC(C)CC(C)(C)C) -1.61 kcal/mol; (in CC(C)CCO) -1.31 kcal/mol. Also, the “solvation free energy, 298 K” value was -1.3 kcal/mol (in CC(C)CO); -1.32 kcal/mol (in CC(C)O); -1.39 kcal/mol (in CCC(C)(C)O); -1.54 kcal/mol (in CCC(C)=O); -1.3 kcal/mol (in CCC(C)CO); -1.32 kcal/mol (in CCC(C)O). The “solvation free energy, 298 K” value (in CCC(O)CC) was -1.31 kcal/mol; the “solvation free energy, 298 K” value (in CCCC(C)O) is -1.31 kcal/mol; the “solvation free energy, 298 K” value (in CCCCC) is -1.79 kcal/mol; the “solvation free energy, 298 K” value (in CCCCCC) was -1.75 kcal/mol; the “solvation free energy, 298 K” value (in CCCCCCC) was -1.74 kcal/mol; the “solvation free energy, 298 K” value (in CCCCCCCC) is -1.71 kcal/mol. The “solvation free energy, 298 K” value was -1.7 kcal/mol (in CCCCCCCCC); -1.68 kcal/mol (in CCCCCCCCCC); -1.32 kcal/mol (in CCCCCCCCCCCCCCCC); -1.25 kcal/mol (in CCCCCCCCO); -1.32 kcal/mol (in CCCCCO); -1.41 kcal/mol (in CCCCO). Moreover, the “solvation free energy, 298 K” value runs as follows: (in CCCO) -1.35 kcal/mol; (in CCOC(C)=O) -1.51 kcal/mol; (in CN1CCCC1=O) -1.24 kcal/mol; (in CN(C)C=O) -1.3 kcal/mol; (in CN(C)P(=O)(N(C)C)N(C)C) -1.39 kcal/mol; (in CO) -1.3 kcal/mol. The “solvation free energy, 298 K” value was -1.06 kcal/mol (in COCCOCCOCCOC); -0.78 kcal/mol (in CS(C)=O); -1.58 kcal/mol (in Cc1ccc(C)cc1); -1.58 kcal/mol (in Cc1cccc(C)c1); -1.56 kcal/mol (in Cc1ccccc1C); -1.84 kcal/mol (in ClC(Cl)(Cl)Cl). In addition, the “solvation free energy, 298 K” value (in Nc1ccccc1) is -1.08 kcal/mol; the “solvation free energy, 298 K” value (in O) came out at 1.22 kcal/mol; the “solvation free energy, 298 K” value (in OCCCOCCCO) was -0.76 kcal/mol; the “solvation free energy, 298 K” value (in OCCO) is -0.45 kcal/mol; the “solvation free energy, 298 K” value (in OCc1ccccc1) is -1.09 kcal/mol; the “solvation free energy, 298 K” value (in c1ccccc1) was -1.64 kcal/mol.

Take `Oc1ccccc1I`: the “solvation free energy, 298 K” value (in O) was -6.21 kcal/mol.

As for `CC(=O)c1ccc(C)cc1`, the “solvation free energy, 298 K” value (in O) was -4.7 kcal/mol.

As for `OCC(O)C(O)C(O)C(O)CO` (stereo not given), the “solvation free energy, 298 K” value (in O) is -23.6 kcal/mol.

As to `CCCCCCCCCCCCCCCCCCCCCC`, the “solvation free energy, 298 K” value by setting is: (in CC(=O)N(C)C) -15 kcal/mol; (in CC(C)(C)O) -13.3 kcal/mol; (in CCC(C)=O) -13.6 kcal/mol; (in CCCCCCCCC=CCCCCCCCC(=O)OCC(COC(=O)CCCCCCCC=CCCCCCCCC)OC(=O)CCCCCCCC=CCCCCCCCC) -13.4 kcal/mol; (in CCCCOC(C)=O) -14.1 kcal/mol; (in CCOC(C)=O) -13.7 kcal/mol. In addition, the “solvation free energy, 298 K” value (in CN(C)C=O) was -15 kcal/mol; the “solvation free energy, 298 K” value (in COC(C)(C)C) is -14.9 kcal/mol; the “solvation free energy, 298 K” value (in COC(C)=O) was -13 kcal/mol; the “solvation free energy, 298 K” value (in O) turned out to be 4.87 kcal/mol.

`O=C(O)c1cccc(O)c1`: the “solvation free energy, 298 K” value (in O) was -9.55 kcal/mol.

Take `CC(C)C1=CC2=CCC3C(C)(C)CCCC3(C)C2CC1` (stereo not given): for the setting “in O”, the “solvation free energy, 298 K” value is -0.08 kcal/mol.

Take `C=C1C=CC(C(C)C)CC1` (stereo not given): under “in O”, the “solvation free energy, 298 K” value was found to be 0.26 kcal/mol.

With `CCCCCCCCCCCCCCCCCCC`, the “solvation free energy, 298 K” value was -12.9 kcal/mol (in CC(=O)N(C)C), -12.7 kcal/mol (in CCCCOC(C)=O), -10.8 kcal/mol (in CCO) and 4.38 kcal/mol (in O).

For the origin of these results see the CombiSolv-Exp solvation set (Vermeire and Green 2021).
